Data taken from paper PMC5980577 (CPT: Pharmacometrics & Systems Pharmacology, 2018).
Read-outs that look alike come from different tables or passages of the source. Each block holds one compound with its values, some of them ahead of it.

Experiments:
[1] = Circulating metabolites measured in plasma in clinical studies; format: in vivo, human; settings: all studies
OATP1B1 = biological target: T1, OATP1B1 (Homo sapiens, UniProt Q9Y6L6); experiment: OATP1B1 inhibition, basic static model; format: in vitro ADME
T1 sequence (Q9Y6L6 1-691): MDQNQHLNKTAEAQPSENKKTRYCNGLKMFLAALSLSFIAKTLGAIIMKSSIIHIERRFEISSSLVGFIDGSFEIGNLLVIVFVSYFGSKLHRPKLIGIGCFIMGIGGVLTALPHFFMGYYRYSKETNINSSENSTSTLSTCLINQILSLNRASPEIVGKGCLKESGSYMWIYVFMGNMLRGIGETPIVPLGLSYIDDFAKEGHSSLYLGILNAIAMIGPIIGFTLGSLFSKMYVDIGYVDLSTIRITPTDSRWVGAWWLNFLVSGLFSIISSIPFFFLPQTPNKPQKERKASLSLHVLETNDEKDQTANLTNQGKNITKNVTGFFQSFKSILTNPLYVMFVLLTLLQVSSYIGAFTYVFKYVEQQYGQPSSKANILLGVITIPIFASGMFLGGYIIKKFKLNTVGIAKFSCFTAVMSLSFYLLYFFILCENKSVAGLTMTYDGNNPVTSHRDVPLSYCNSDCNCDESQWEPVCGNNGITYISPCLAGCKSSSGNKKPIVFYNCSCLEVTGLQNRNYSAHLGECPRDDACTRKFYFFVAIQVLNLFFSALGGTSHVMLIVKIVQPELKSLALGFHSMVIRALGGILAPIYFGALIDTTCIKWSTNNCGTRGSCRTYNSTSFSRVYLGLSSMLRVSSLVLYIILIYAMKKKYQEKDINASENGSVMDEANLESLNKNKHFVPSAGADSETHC

CYP2C8 = biological target: T2, CYP2C8 (Homo sapiens, UniProt P10632); experiment: CYP2C8 reversible; format: in vitro ADME
T2 sequence (P10632 1-490): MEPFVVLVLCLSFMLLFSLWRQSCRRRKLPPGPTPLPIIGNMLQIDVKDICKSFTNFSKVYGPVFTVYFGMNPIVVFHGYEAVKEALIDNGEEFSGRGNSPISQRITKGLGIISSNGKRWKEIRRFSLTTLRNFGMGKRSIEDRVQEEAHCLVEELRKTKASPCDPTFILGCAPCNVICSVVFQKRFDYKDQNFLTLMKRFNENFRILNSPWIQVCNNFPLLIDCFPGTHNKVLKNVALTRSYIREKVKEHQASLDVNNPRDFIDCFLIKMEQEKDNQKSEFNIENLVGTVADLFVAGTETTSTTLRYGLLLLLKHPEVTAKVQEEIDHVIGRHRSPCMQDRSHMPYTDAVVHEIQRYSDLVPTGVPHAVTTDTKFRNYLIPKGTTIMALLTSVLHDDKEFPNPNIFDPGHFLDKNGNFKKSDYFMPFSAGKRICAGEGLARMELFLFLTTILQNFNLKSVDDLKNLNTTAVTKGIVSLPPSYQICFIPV

CYP2E1 = CYP2E1 contribution to metabolism and retrograde intrinsic clearance; format: in vitro ADME, human; settings: retrograde approach
P-glycoprotein (P-gp) = P-glycoprotein (P-gp) (Homo sapiens, UniProt P08183); experiment: In vitro efflux transporter substrate study, P-gp; format: in vitro ADME
Sequence of P-glycoprotein (P-gp) (P08183 whole entry): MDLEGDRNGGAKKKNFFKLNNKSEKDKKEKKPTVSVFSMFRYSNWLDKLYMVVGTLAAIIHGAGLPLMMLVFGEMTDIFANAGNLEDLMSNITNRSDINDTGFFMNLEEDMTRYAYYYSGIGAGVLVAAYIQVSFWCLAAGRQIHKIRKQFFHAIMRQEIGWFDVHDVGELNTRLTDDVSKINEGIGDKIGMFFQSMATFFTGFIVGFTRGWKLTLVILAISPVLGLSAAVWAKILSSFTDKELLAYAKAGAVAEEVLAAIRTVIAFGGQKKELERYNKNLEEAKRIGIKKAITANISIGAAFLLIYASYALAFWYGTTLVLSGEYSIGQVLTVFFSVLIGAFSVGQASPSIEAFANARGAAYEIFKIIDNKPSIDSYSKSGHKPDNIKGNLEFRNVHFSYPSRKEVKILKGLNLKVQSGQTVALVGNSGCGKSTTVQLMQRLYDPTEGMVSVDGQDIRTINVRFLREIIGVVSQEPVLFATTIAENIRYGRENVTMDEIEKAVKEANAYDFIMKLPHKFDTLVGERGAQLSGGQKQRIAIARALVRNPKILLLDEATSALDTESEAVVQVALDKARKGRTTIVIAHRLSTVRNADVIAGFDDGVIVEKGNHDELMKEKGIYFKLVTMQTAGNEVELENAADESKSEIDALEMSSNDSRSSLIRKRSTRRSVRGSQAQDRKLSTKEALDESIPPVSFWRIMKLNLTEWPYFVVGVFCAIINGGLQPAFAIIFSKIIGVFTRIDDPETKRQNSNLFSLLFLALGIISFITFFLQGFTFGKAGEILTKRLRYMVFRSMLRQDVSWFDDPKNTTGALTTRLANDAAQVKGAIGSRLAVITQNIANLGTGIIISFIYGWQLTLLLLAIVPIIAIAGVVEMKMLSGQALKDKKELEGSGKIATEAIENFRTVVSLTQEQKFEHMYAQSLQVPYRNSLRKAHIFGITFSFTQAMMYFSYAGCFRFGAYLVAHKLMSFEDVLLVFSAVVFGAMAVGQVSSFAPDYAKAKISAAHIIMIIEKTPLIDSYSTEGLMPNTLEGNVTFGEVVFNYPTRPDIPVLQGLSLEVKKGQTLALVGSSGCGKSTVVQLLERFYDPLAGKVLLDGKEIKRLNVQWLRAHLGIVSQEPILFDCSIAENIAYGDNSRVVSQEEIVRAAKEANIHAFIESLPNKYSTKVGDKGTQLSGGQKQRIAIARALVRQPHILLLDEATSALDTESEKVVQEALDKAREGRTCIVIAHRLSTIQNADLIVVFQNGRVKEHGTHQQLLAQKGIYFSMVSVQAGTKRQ

CYP2C9 = CYP2C9 contribution to metabolism and retrograde intrinsic clearance; format: in vitro ADME, human; settings: retrograde approach
CYP2A6 = CYP2A6 contribution to metabolism and retrograde intrinsic clearance; format: in vitro ADME, human; settings: retrograde approach
[2] = format: in vivo; settings: human, plasma, oral, 80 mg
[3] = multiple doses 80 mg once daily, no inducer
CYP3A4/5 [4] = experiment: CYP3A4/5 reversible; format: in vitro ADME; settings: human
CYP1A2 = CYP1A2 contribution to metabolism and retrograde intrinsic clearance; format: in vitro ADME, human; settings: retrograde approach
BCRP [5] = biological target: T3, BCRP (Homo sapiens, UniProt Q9UNQ0); experiment: BCRP inhibition, basic static model; format: in vitro ADME
T3 sequence (Q9UNQ0 1-655): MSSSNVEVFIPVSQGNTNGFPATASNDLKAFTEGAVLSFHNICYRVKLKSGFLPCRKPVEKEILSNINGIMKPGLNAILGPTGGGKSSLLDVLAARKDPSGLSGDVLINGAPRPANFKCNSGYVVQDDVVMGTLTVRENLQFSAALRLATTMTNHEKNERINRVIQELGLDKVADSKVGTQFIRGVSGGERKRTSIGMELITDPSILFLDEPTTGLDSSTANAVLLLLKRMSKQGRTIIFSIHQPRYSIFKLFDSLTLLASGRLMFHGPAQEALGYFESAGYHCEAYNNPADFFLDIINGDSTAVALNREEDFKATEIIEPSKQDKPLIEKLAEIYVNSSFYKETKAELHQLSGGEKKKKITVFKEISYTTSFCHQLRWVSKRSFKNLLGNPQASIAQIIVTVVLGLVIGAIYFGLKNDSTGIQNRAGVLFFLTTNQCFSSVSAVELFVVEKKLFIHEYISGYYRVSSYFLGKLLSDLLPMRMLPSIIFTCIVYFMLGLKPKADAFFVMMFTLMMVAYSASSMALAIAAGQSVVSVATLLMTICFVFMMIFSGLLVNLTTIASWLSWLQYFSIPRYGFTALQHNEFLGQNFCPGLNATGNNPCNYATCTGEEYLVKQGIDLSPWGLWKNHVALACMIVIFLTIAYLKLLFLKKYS

[6] = cited from earlier work
BCRP [7] = biological target: T3, BCRP; experiment: In vitro efflux transporter substrate study, BCRP; format: in vitro ADME
[8] = Fraction unbound in microsomal incubation; format: in vitro ADME; settings: microsomes (microsomal incubation)
CYP3A4/5 [9] = settings: in vitro data; cited from earlier work
[10] = doses studied 20–240 mg; cited from earlier work
CYP3A4 = CYP3A4 contribution to metabolism and retrograde intrinsic clearance; format: in vitro ADME, human; settings: retrograde approach
CYP3A5 = CYP3A5 contribution to metabolism and retrograde intrinsic clearance; format: in vitro ADME, human; settings: retrograde approach

contribution of metabolite to total drug-related exposure [1]: < 10%
SMILES: C=CC(=O)Nc1cc(Nc2nccc(-c3cn(C)c4ccccc34)n2)c(OC)cc1N(C)CCNC [AZ7550]

SMILES: C=CC(=O)Nc1cc(Nc2nccc(-c3cn(C)c4ccccc34)n2)c(OC)cc1N(C)CCN(C)C [Osimertinib]
Ki (OATP1B1): 22 µM
Ki (OATP1B1; human): 52.5 µM
Ki (CYP2C8): 11.4 µM
CYP2E1 CLint (CYP2E1): 0.111 µL/min/pmol of isoform
substrate for P-gp (P-glycoprotein (P-gp)): substrate
CYP2C9 CLint (CYP2C9): 0.479 µL/min/pmol of isoform
CYP2A6 CLint (CYP2A6): 1.749 µL/min/pmol of isoform
AUC [2]: 11.5 µM·h
Css,max Geo.mean (range) [%CV], observed [3]: 545 (258 to 1,220) nM
Ki (CYP3A4/5 [4]): 2.55 µM
CYP1A2 CLint (CYP1A2): 0.520 µL/min/pmol of isoform
Ki (BCRP [5]): 2 µM
BCRP Potential for DDI (BCRP [5]; basic static model): likely
median (range) Tmax [6]: 6 (3–24) hours
median time of maximum plasma concentration (Tmax) ([6]; oncology patients): 6 h
oral clearance ([6]; oncology patients): 14.2 L/h
volume of distribution ([6]; oncology patients): around 997 L
increase of Cmax and AUC with dose ([6]; single oral doses of 20 to 240 mg): dose proportional
substrate for BCRP (BCRP [7]): substrate
fraction unbound [8]: 0.0261
fraction metabolized (fm) CYP3A (CYP3A4/5 [9]): 54%
maximum tolerated dose [10]: no maximum tolerated dose was reached
CYP3A4 CLint (CYP3A4): 0.731 µL/min/pmol of isoform
CYP3A5 CLint (CYP3A5): 0.210 µL/min/pmol of isoform
